Data set [1] has as its target T1, human kinin B1R (Homo sapiens, UniProt P46663).
T1 construct: expressed in transfected cells
T1 sequence (P46663 1-353): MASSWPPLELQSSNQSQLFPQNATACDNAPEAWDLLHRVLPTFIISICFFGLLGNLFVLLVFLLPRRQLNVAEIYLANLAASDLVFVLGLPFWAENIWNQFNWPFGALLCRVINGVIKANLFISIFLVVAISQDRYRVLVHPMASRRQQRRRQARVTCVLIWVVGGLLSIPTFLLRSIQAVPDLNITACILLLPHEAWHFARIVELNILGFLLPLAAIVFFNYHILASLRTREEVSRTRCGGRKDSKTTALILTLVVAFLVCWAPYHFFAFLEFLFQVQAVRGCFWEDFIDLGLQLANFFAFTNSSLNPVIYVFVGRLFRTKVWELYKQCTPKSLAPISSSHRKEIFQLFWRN
The experiment in a line: Competition binding assay on HEK293 cells stably expressing human kinin B1R, radioligand [3H]Lys[Leu8]desArg9BK. Particulars: displacement of radioligand, read-out: hB1R IC50. How it is done:
(§1) Competition binding assays were carried out essentially as described previously. Briefly, HEK293 cells stably expressing either human kinin B1R or B2R were grown in 24-well plates and incubated with 4 nM [^3H]Lys[[…]]desArg^9BK (for B1R) or with 1 nM [^3H]BK/well (for B2R) in serum-free DMEM for 1-2 h in the absence or presence of increasing concentrations of competitors ([…]-10^-5 M for peptides; 10^-10-10^-4 g/mL for peptides-coupled NPs). Radioactivity of samples was measured by a β-scintillation counter (PerkinElmer, Woodbridge, ON, Canada). Binding affinities of compounds were expressed in terms of IC50 values-the concentrations of competing compounds (i.e., free peptides, TMC-peptides conjugates and peptides coupled to NPs) causing 50% displacement of specific binding of the radioligand. Data are means of 2-3 independent experiments.

Data set [2] concerns the target T2, human kinin B2R (Homo sapiens, UniProt P30411).
T2 construct: expressed in transfected cells
T2 sequence (P30411 1-391): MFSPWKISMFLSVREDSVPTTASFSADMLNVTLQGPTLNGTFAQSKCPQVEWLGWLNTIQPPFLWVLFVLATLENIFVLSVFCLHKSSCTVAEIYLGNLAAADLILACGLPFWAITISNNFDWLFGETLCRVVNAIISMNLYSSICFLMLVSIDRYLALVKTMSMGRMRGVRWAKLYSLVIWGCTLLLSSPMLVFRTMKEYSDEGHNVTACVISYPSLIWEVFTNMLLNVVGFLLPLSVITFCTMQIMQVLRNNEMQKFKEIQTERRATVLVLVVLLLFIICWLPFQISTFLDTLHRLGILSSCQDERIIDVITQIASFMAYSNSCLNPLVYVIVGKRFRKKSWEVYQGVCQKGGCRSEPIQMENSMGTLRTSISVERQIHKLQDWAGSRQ
The experiment in a line: Competition binding assay on HEK293 cells stably expressing human kinin B2R, radioligand [3H]BK. Particulars: displacement of [3H]BK, read-out: hB2R IC50. As to the method: as §1
Background: Displacement assays read how much labelled ligand stays bound in the presence of the test substance.

Details of data set [3]: method as in PMID 30837797. The note with it: in rodents; cited from earlier work.

Square brackets hold non-standard residues; d marks the D form. Peptide text beside a SMILES is read from it. ξ: configuration not given here. Oic = O=C(O)[C@@H]1C[C@@H]2CCCC[C@@H]2N1; d2Nal = N[C@H](Cc1ccc2ccccc2c1)C(=O)O; Hyp = O=C(O)[C@@H]1C[C@@H](O)CN1; 2Thi = N[C@@H](Cc1cccs1)C(=O)O; Gly(N-cHex) = O=C(O)CNC1CCCCC1; ξαMeF = CC(N)(Cc1ccccc1)C(=O)O; Orn = NCCC[C@H](N)C(=O)O; βAla = NCCC(=O)O; Mpa = O=C(O)CCS

Usually IC50 stands for the concentration that gives 50% inhibition. Regarding `N=C(N)NCCC[C@H](NC(=O)[C@H](CCCCN)NC(=O)CCNC(=O)CCS)C(=O)N1CCC[C@H]1C(=O)N1CCC[C@H]1C(=O)NCC(=O)N[C@@H](Cc1ccccc1)C(=O)N[C@@H](CO)C(=O)N1CCC[C@H]1C(=O)N[C@H](Cc1ccccc1)C(=O)O` [MAB7108, Mpa-βAla-Lys-Arg-Pro-Pro-Gly-Phe-Ser-Pro-DPhe-OH], in data set [1], the IC50 came to 0.8 nM. Take “TRIOZAN™-MAB7053: TRIOZAN (trimethyl chitosan) conjugated with 7 equivalents of B2R agonist peptide MAB7053 (RPPGXSXXR; Residue 3 is Hyp (trans-4-hydroxy-L-Pro); residues 5 and 8 are Thi (alpha-(2-thienyl)-L-Ala); residue 7 is N-cyclohexyl-Gly; free C-terminal acid; N-terminal Mpa-betaAla spacer, thioether-linked via M)”: in data set [2], the IC50 came out at 10600 nM.

Take `N=C(N)NCCC[C@H](NC(=O)[C@H](Cc1cccs1)NC(=O)CN(C(=O)[C@H](CO)NC(=O)[C@H](Cc1cccs1)NC(=O)CNC(=O)[C@@H]1C[C@@H](O)CN1C(=O)[C@@H]1CCCN1C(=O)[C@@H](N)CCCNC(=N)N)C1CCCCC1)C(=O)O` [NG291, H-Arg-Pro-Hyp-Gly-Thi-Ser-^NChg-Thi-Arg-OH] (H-RP[Hyp]G[2Thi]S[Gly(N-cHex)][2Thi]R-OH): the IC50 was more than 10000 nM in data set [1] and 2 nM in data set [2]. Regarding `CNCC(=O)N[C@@H](CCCCN)C(=O)N[C@@H](CCCNC(=N)N)C(=O)N1CCC[C@H]1C(=O)N1CCC[C@H]1C(=O)NCC(=O)N[C@@H](Cc1ccccc1)C(=O)N[C@@H](CO)C(=O)N1CCC[C@H]1C(=O)N[C@H](Cc1ccccc1)C(=O)O` [NG29, Sar-Lys-Arg-Pro-Pro-Gly-Phe-Ser-Pro-DPhe-OH], the figures for the IC50 in data set [1] and in data set [2] were 0.5 nM and more than 10000 nM, respectively.

On to `CC[C@H](C)[C@H](NC(=O)[C@@H](Cc1ccc2ccccc2c1)NC(=O)[C@H](CO)NC(=O)C(C)(Cc1ccccc1)NC(=O)CNC(=O)[C@@H]1CCCN1C(=O)[C@@H]1C[C@@H]2CCCC[C@@H]2N1C(=O)[C@H](CCCNC(=N)N)NC(=O)[C@H](CCCN)NC(=O)CCNC(=O)CCS)C(=O)O` (stereo partly drawn) [MAB7122, Mpa-βAla-Orn-Arg-Oic-Pro-Gly-(αMe)Phe-Ser-DβNal-Ile-OH] ([Mpa][βAla][Orn]R[Oic]PG[ξαMeF]S[d2Nal]I-OH), for which, in data set [1], the IC50 worked out at 10 nM. In the case of `N=C(N)NCCC[C@H](NC(=O)[C@H](Cc1cccs1)NC(=O)CN(C(=O)[C@H](CO)NC(=O)[C@H](Cc1cccs1)NC(=O)CNC(=O)[C@@H]1C[C@@H](O)CN1C(=O)[C@@H]1CCCN1C(=O)[C@H](CCCNC(=N)N)NC(=O)CCNC(=O)CCS)C1CCCCC1)C(=O)O` [MAB7053, Mpa-βAla-Arg-Pro-Hyp-Gly-Thi-Ser-^NChg-Thi-Arg-OH] ([Mpa][βAla]RP[Hyp]G[2Thi]S[Gly(N-cHex)][2Thi]R-OH), in data set [2], the IC50 is 1180 nM.

Consider `CC[C@H](C)[C@H](NC(=O)[C@@H](Cc1ccc2ccccc2c1)NC(=O)[C@H](CO)NC(=O)C(C)(Cc1ccccc1)NC(=O)CNC(=O)[C@@H]1CCCN1C(=O)[C@@H]1C[C@@H]2CCCC[C@@H]2N1C(=O)[C@H](CCCNC(=N)N)NC(=O)[C@H](CCCN)NC(C)=O)C(=O)O` (stereo partly drawn) [R954, AcOrn-Arg-Oic-Pro-Gly-(αMe)Phe-Ser-DβNal-Ile-OH] (Ac-[Orn]R[Oic]PG[ξαMeF]S[d2Nal]I-OH), for which the IC50 in data set [1] is 2 nM; in data set [2], more than 10000 nM.

B1: ANX-005: C1q function blocking humanized IgG4 mAb (Annexon Biosciences) (antibody, chains of the INN, looked up, V domains shown)
VH: QVQLVQSGAELKKPGASVKVSCKSSGYHFTSYWMHWVKQAPGQGLEWIGVIHPNSGSINYNEKFESRVTITVDKSTSTAYMELSSLRSEDTAVYYCAGERDSTEVLPMDYWGQGTTVTVSS
VL: DVQITQSPSSLSASLGERATINCRASKSINKYLAWYQQKPGKAPKLLIYSGSTLQSGIPARFSGSGSGTDFTLTISSLEPEDFAMYYCQQHNEYPLTFGQGTKLEIK
With B1, in data set [3], the “half-life (t½)” value is reported as ~ 18 h.

Values taken from publication PMC10343654, “Evaluation of Novel B1R/B2R Agonists Containing TRIOZAN™ Nanoparticles for Targeted Brain Delivery of Antibodies in a Mouse Model of Alzheimer Disease” (Molecules, 2023).
